Laboratory results taken from patent US20060293315A1, “Intermediates of novel heterocyclic compounds having antibacterial activity and process for their preparation” (Dr. Reddy's Laboratories Ltd., priority 2001, published 2006).

melting point [°C] | SMILES
147 | NC[C@H]1CN(c2ccc(N3CCOC3=O)c(F)c2)C(=O)O1 [Example 53]
189 to 191 | NC[C@H]1CN(c2ccc(N3CCOC3=O)cc2)C(=O)O1 [Example 59]
203 | CCC(=O)NC[C@H]1CN(c2ccc(N3CCOC3=O)c(F)c2)C(=O)O1 [Example 67]
211 | CCCC(=O)NC[C@H]1CN(c2ccc(N3CCOC3=O)c(F)c2)C(=O)O1 [Example 68]
194 | O=C1O[C@@H](CNC(=O)C(F)(F)F)CN1c1ccc(N2CCOC2=O)c(F)c1 [Example 72]
160 | CCOC(=O)C(=O)NC[C@H]1CN(c2ccc(N3CCOC3=O)c(F)c2)C(=O)O1 [Example 73]
220 | CC(=O)NC[C@H]1CN(c2ccc(N3CCSC3=S)c(F)c2)C(=O)O1 [Example 76]
202 | CC(=O)NC[C@H]1CN(c2ccc(-n3c(=O)oc4ccc(C)cc43)c(F)c2)C(=O)O1 [Example 80]
143 | CC(=O)NC[C@H]1CN(c2ccc(N3CCOC3=O)c(C(F)(F)F)c2)C(=O)O1 [Example 81]
120 | CC(=O)NC[C@H]1CN(c2ccc(N3CCOC3=O)cc2F)C(=O)O1 [Example 85]
224 | CCC(=O)NC[C@H]1CN(c2cc(F)c(N3CCOC3=O)c(F)c2)C(=O)O1 [Example 87]
217 | CC(=O)NC[C@H]1CN(c2ccc(N3CCN(C)C3=O)cc2)C(=O)O1 [Example 93]
204 | CC(=O)NC[C@H]1CN(c2ccc(N3CCN(Cc4ccccc4)C3=O)cc2)C(=O)O1 [Example 94]
194 | CC(=O)NC[C@H]1CN(c2ccc(N3CCN(c4ccc(F)cc4)C3=O)c(F)c2)C(=O)O1 [Example 96]
171 | CC(=S)NC[C@H]1CN(c2ccc(N3CCOC3=O)c(F)c2)C(=O)O1 [Example 98]
137 | CC(=S)NC[C@H]1CN(c2ccc(-n3c(=O)oc4ccccc43)c(F)c2)C(=O)O1 [Example 101]
154 | CC(=S)NC[C@H]1CN(c2ccc(N3CCOC3=O)c(C(F)(F)F)c2)C(=O)O1 [Example 102]
168 | CCC(=S)NC[C@H]1CN(c2cc(F)c(N3CCOC3=O)c(F)c2)C(=O)O1 [Example 104]

melting point [°C] | SMILES
195 | COC(=O)NC[C@H]1CN(c2ccc(N3CCOC3=O)cc2)C(=O)O1 [Example 112]
147 | CSC(=S)NC[C@H]1CN(c2cc(F)c(N3CCOC3=O)c(F)c2)C(=O)O1 [Example 115]
137 | COC(=S)NC[C@H]1CN(c2ccc(N3CCOC3=O)c(F)c2)C(=O)O1 [Example 119]
208 | CCOC(=S)NC[C@H]1CN(c2ccc(N3CCOC3=O)c(F)c2)C(=O)O1 [Example 120]
184 | O=C1O[C@@H](CNC(=S)OC(=O)C(F)(F)F)CN1c1ccc(N2CCOC2=O)c(F)c1 [Example 121]
> 200 | CCCOC(=S)NC[C@H]1CN(c2ccc(N3CCN(C)C3=S)c(F)c2)C(=O)O1 [Example 125]
179 | COC(=S)NC[C@H]1CN(c2ccc(N3CCN(C)C3=S)c(F)c2)C(=O)O1 [Example 126]
183 | CC(C)OC(=S)NC[C@H]1CN(c2ccc(N3CCN(C)C3=S)c(F)c2)C(=O)O1 [Example 127]
157 | CCOC(=S)NC[C@H]1CN(c2ccc(N3CCOC3=O)c(C(F)(F)F)c2)C(=O)O1 [Example 129]
182 | COC(=S)NC[C@H]1CN(c2cc(F)c(N3CCOC3=O)c(F)c2)C(=O)O1 [Example 130]
153 | COC(=S)NC[C@H]1CN(c2ccc(N3CCOC3=O)cc2)C(=O)O1 [Example 131]
181 | O=C1OCCN1c1ccc(N2C[C@H](CNC(=S)OCC(F)(F)F)OC2=O)cc1 [Example 134]
141 | O=C1OCCN1c1ccc(N2C[C@H](CNC(=S)OCCO)OC2=O)cc1 [Example 135]
141 | COC(=S)NC[C@H]1CN(c2ccc(-n3c(=O)oc4ccccc43)cc2)C(=O)O1 [Example 139]
147 | CCOC(=S)NC[C@H]1CN(c2ccc(-n3c(=O)oc4ccccc43)cc2)C(=O)O1 [Example 140]
218 | COC(=S)NC[C@H]1CN(c2ccc(N3CC(=O)N(C)C3)c(F)c2)C(=O)O1 [Example 141]
195 | CCOC(=S)NC[C@H]1CN(c2ccc(N3CCN(c4ccccc4)C3=O)c(F)c2)C(=O)O1 [Example 148]

Continued, compound first:

SMILES | melting point [°C]
CCCCC(=O)NC[C@H]1CN(c2ccc(N3CCOC3=O)c(F)c2)C(=O)O1 [Example 69] | 187
CCCCCCC(=O)NC[C@H]1CN(c2ccc(N3CCOC3=O)c(F)c2)C(=O)O1 [Example 70] | 131
C=CC(=O)NC[C@H]1CN(c2ccc(N3CCOC3=O)c(F)c2)C(=O)O1 [Example 71] | 196
CC(=O)NC[C@H]1CN(c2ccc(N3CCN(C)C3=S)c(F)c2)C(=O)O1 [Example 77] | 171
CC(=O)NC[C@H]1CN(c2ccc(-n3c(=O)oc4cc(C)ccc43)c(F)c2)C(=O)O1 [Example 79] | 213
CCC(=O)NC[C@H]1CN(c2ccc(N3CCOC3=O)c(C(F)(F)F)c2)C(=O)O1 [Example 82] | 143
C=CC(=O)NC[C@H]1CN(c2ccc(N3CCOC3=O)c(C(F)(F)F)c2)C(=O)O1 [Example 84] | 191
CC(=O)NC[C@H]1CN(c2cc(F)c(N3CCOC3=O)c(F)c2)C(=O)O1 [Example 86] | 219
CC(=O)NC[C@H]1CN(c2ccc(N3CCOC3=O)cc2)C(=O)O1 [Example 88] | 231
CC(=O)NC[C@H]1CN(c2ccc(-n3c(=O)oc4ccccc43)cc2)C(=O)O1 [Example 89] | 229
CC(=O)NC[C@H]1CN(c2ccc(N3CC(=O)N(C)C3)c(F)c2)C(=O)O1 [Example 90] | 230
CC(=O)NC[C@H]1CN(c2ccc(N3CCN(C)C3=O)c(F)c2)C(=O)O1 [Example 92] | 182
CC(=O)NC[C@H]1CN(c2ccc(N3CCN(c4ccccc4)C3=O)c(F)c2)C(=O)O1 [Example 95] | 182
O=C1O[C@@H](CNC(=S)CC(F)(F)F)CN1c1ccc(N2CCOC2=O)c(F)c1 [Example 99] | 165
CC(=S)NC[C@H]1CN(c2ccc(N3CCN(C)C3=S)c(F)c2)C(=O)O1 [Example 100] | 111
CC(=S)NC[C@H]1CN(c2cc(F)c(N3CCOC3=O)c(F)c2)C(=O)O1 [Example 103] | 108
CC(=S)NC[C@H]1CN(c2ccc(N3CCOC3=O)cc2)C(=O)O1 [Example 105] | 195
CC(=S)NC[C@H]1CN(c2ccc(N3CCN(c4ccccc4)C3=O)c(F)c2)C(=O)O1 [Example 106] | 165
CC(=S)NC[C@H]1CN(c2cc(F)c(N3CNC(=O)C3)c(F)c2)C(=O)O1 [Example 108] | 148 to 150
COC(=O)NC[C@H]1CN(c2ccc(N3CCOC3=O)c(F)c2)C(=O)O1 [Example 109] | 153
COC(=O)NC[C@H]1CN(c2ccc(N3CCOC3=O)c(C(F)(F)F)c2)C(=O)O1 [Example 110] | 148
COC(=O)NC[C@H]1CN(c2cc(F)c(N3CCOC3=O)c(F)c2)C(=O)O1 [Example 111] | 157

SMILES | melting point [°C]
COC(=O)NC[C@H]1CN(c2ccc(N3CC(=O)N(C)C3)c(F)c2)C(=O)O1 [Example 113] | 226
CSC(=S)NC[C@H]1CN(c2ccc(N3CCOC3=O)cc2)C(=O)O1 [Example 114] | 161
O=C1OCCN1c1ccc(N2C[C@H](CNC(=S)OC3CCCCC3)OC2=O)cc1 [Example 122] | 153
COC(=S)NC[C@H]1CN(c2ccc(N3CCOC3=O)c(F)c2)C(=O)O1 [Example 123] | 197
CCOC(=S)NC[C@H]1CN(c2ccc(N3CCN(C)C3=S)c(F)c2)C(=O)O1 [Example 124] | 197
COC(=S)NC[C@H]1CN(c2ccc(N3CCOC3=O)c(C(F)(F)F)c2)C(=O)O1 [Example 128] | 146
CCOC(=S)NC[C@H]1CN(c2ccc(N3CCOC3=O)cc2)C(=O)O1 [Example 132] | 168
CCCOC(=S)NC[C@H]1CN(c2ccc(N3CCOC3=O)cc2)C(=O)O1 [Example 133] | 176
COCCOC(=S)NC[C@H]1CN(c2ccc(N3CCOC3=O)cc2)C(=O)O1 [Example 136] | 149
C=CCOC(=S)NC[C@H]1CN(c2ccc(N3CCOC3=O)cc2)C(=O)O1 [Example 137] | 150
CC(C)OC(=S)NC[C@H]1CN(c2ccc(N3CCOC3=O)cc2)C(=O)O1 [Example 138] | 140
COC(=S)NC[C@H]1CN(c2ccc(N3CCN(C)C3=O)cc2)C(=O)O1 [Example 142] | 209
COC(=S)NC[C@H]1CN(c2ccc(N3CC(=O)N(C)C3)cc2)C(=O)O1 [Example 143] | 205
COC(=S)NC[C@H]1CN(c2ccc(N3CCN(C)C3=O)c(F)c2)C(=O)O1 [Example 144] | 146
COC(=S)NC[C@H]1CN(c2ccc(N3CCN(Cc4ccccc4)C3=O)cc2)C(=O)O1 [Example 145] | 170
CCOC(=S)NC[C@H]1CN(c2ccc(N3CCN(Cc4ccccc4)C3=O)cc2)C(=O)O1 [Example 146] | 160
COC(=S)NC[C@H]1CN(c2ccc(N3CCN(c4ccccc4)C3=O)c(F)c2)C(=O)O1 [Example 147] | 174
COC(=S)NC[C@H]1CN(c2ccc(N3CCN(c4ccc(F)cc4)C3=O)c(F)c2)C(=O)O1 [Example 149] | 208
CCOC(=S)NC[C@H]1CN(c2ccc(N3CCN(c4ccc(F)cc4)C3=O)c(F)c2)C(=O)O1 [Example 150] | 215
CC(C)OC(=S)NC[C@H]1CN(c2ccc(N3CCN(c4ccc(F)cc4)C3=O)c(F)c2)C(=O)O1 [Example 151] | 220
CN(C)CCOC(=S)NC[C@H]1CN(c2ccc(N3CCOC3=O)cc2)C(=O)O1 [Example 152] | 161
